Reference: PubChem BioAssay AID248 (DTP/NCI, 2004)
Several values for one entry are separate records, joined by “and”; a condition that tells them apart may be missing. Equal entries are not always repeated. Inconclusive results and toxic doses are left out. Rule as the data show it: active = T/C of 150% or more; inactive = T/C below 125%.

System: L1210 leukemia ip in BDF1 mice, survival T/C
Assay: NCI In Vivo Anticancer Drug Screen. Data for tumor model L1210 Leukemia (intraperitoneal) in B6D2F1 (BDF1) mice
Details: endpoint: mean survival time, higher = longer survival
In short: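 Transplantable tumor model; survival measured in treated vs vehicle control mice. Value = treated/control.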

[1] = dose: 100.0 mg/kg/injection, schedule: Q01DX009 (ip), vehicle: saline
[2] = dose: 200.0 mg/kg/injection, schedule: Q01DX009 (ip), vehicle: saline
[3] = dose: 100.0 mg/kg/injection, schedule: Q01DX001 (ip), vehicle: saline
[4] = dose: 200.0 mg/kg/injection, schedule: Q01DX001 (ip), vehicle: saline
[5] = dose: 75.0 mg/kg/injection, schedule: Q01DX001 (ip), vehicle: saline
[6] = dose: 150.0 mg/kg/injection, schedule: Q01DX001 (ip), vehicle: saline
[7] = dose: 400.0 mg/kg/injection, schedule: Q01DX001 (ip), vehicle: saline
[8] = dose: 100.0 mg/kg/injection, schedule: Q01DX009 (ip), vehicle: Klucel (hydroxypropylcellulose) (HPC)
[9] = dose: 200.0 mg/kg/injection, schedule: Q01DX009 (ip), vehicle: Klucel (hydroxypropylcellulose) (HPC)
[10] = dose: 400.0 mg/kg/injection, schedule: Q01DX009 (ip), vehicle: Klucel (hydroxypropylcellulose) (HPC)
[11] = dose: 400.0 mg/kg/injection, schedule: Q01DX009 (ip), vehicle: saline

Measured: T/C

[Cl][Pt+2][Cl].[NH-]C1CCCC1.[NH-]C1CCCC1
inactive: dose: 10.0 mg/kg/injection, schedule: Q01DX009 (ip), vehicle: Klucel (hydroxypropylcellulose) (HPC) 102 % of control | dose: 20.0 mg/kg/injection, schedule: Q01DX009 (ip), vehicle: Klucel (hydroxypropylcellulose) (HPC) 116 % of control | dose: 20.0 mg/kg/injection, schedule: Q04DX003 (ip), vehicle: Klucel (hydroxypropylcellulose) (HPC) 121 % of control | dose: 40.0 mg/kg/injection, schedule: Q01DX005 (ip), vehicle: olive oil, sesame oil, peanut oil 109 % of control | dose: 40.0 mg/kg/injection, schedule: Q01DX009 (ip), vehicle: Klucel (hydroxypropylcellulose) (HPC) 107 % of control | dose: 40.0 mg/kg/injection, schedule: Q04DX003 (ip), vehicle: Klucel (hydroxypropylcellulose) (HPC) 111 % of control and 123 % of control | dose: 66.0 mg/kg/injection, schedule: Q01DX005 (ip), vehicle: olive oil, sesame oil, peanut oil 112 % of control | dose: 80.0 mg/kg/injection, schedule: Q01DX009 (ip), vehicle: Klucel (hydroxypropylcellulose) (HPC) 121 % of control | dose: 80.0 mg/kg/injection, schedule: Q04DX003 (ip), vehicle: Klucel (hydroxypropylcellulose) (HPC) 117 % of control | dose: 100.0 mg/kg/injection, schedule: Q01DX005 (ip), vehicle: olive oil, sesame oil, peanut oil 120 % of control | dose: 150.0 mg/kg/injection, schedule: Q01DX005 (ip), vehicle: olive oil, sesame oil, peanut oil 115 % of control | dose: 160.0 mg/kg/injection, schedule: Q01DX009 (ip), vehicle: Klucel (hydroxypropylcellulose) (HPC) 124 % of control | dose: 160.0 mg/kg/injection, schedule: Q04DX003 (ip), vehicle: Klucel (hydroxypropylcellulose) (HPC) 108 % of control and 112 % of control | dose: 320.0 mg/kg/injection, schedule: Q01DX009 (ip), vehicle: Klucel (hydroxypropylcellulose) (HPC) 96 % of control | dose: 320.0 mg/kg/injection, schedule: Q04DX003 (ip), vehicle: Klucel (hydroxypropylcellulose) (HPC) 118 % of control

CCCCCCCCCCCCCCCCN1CCCN(CCCCCCCCCCCCCCCC)CC1
inactive: dose: 25.0 mg/kg/injection, schedule: Q01DX009 (ip), vehicle: saline 107 % of control and 113 % of control | dose: 50.0 mg/kg/injection, schedule: Q01DX009 (ip), vehicle: saline 95 % of control and 100 % of control | [1] 94 % of control and 102 % of control | [2] 91 % of control

[O-][n+]1ccccc1/C=C\c1ccccc1
inactive: [3] 92 % of control | [4] 94 % of control

c1ccc(N/N=C2/CCN3CCCc4cccc2c43)cc1
inactive: dose: 3.0 mg/kg/injection, schedule: Q01DX009 (ip), vehicle: DMSO 98 % of control | dose: 6.0 mg/kg/injection, schedule: Q01DX009 (ip), vehicle: DMSO 96 % of control | dose: 12.0 mg/kg/injection, schedule: Q01DX009 (ip), vehicle: DMSO 95 % of control | dose: 12.5 mg/kg/injection, schedule: Q04DX003 (ip), vehicle: DMSO 101 % of control | dose: 25.0 mg/kg/injection, schedule: Q01DX009 (ip), vehicle: DMSO 89 % of control | dose: 25.0 mg/kg/injection, schedule: Q04DX003 (ip), vehicle: DMSO 100 % of control | dose: 50.0 mg/kg/injection, schedule: Q04DX003 (ip), vehicle: DMSO 104 % of control | dose: 100.0 mg/kg/injection, schedule: Q04DX003 (ip), vehicle: gum acacia 95 % of control

N#CCCN(C(=O)Nc1ccccc1)C1CCCCC1
inactive: dose: 100.0 mg/kg/injection, schedule: Q01DX Z (ip), vehicle: methylcellulose (MC) 101 % of control | dose: 200.0 mg/kg/injection, schedule: Q01DX Z (ip), vehicle: methylcellulose (MC) 89 % of control

Cc1nnc2c3ccccc3c(-c3ccccc3)nn12
inactive: dose: 100.0 mg/kg/injection, schedule: Q01DX001 (ip), vehicle: carboxymethylcellulose (CMC) 104 % of control | dose: 200.0 mg/kg/injection, schedule: Q01DX001 (ip), vehicle: carboxymethylcellulose (CMC) 106 % of control

C/C=C(\CC)C1(CC)C(=O)NC(=O)NC1=O
inactive: dose: 75.0 mg/kg/injection, schedule: Q01DX001 (ip), vehicle: other 97 % of control | [5] 102 % of control | dose: 150.0 mg/kg/injection, schedule: Q01DX001 (ip), vehicle: other 97 % of control | [6] 103 % of control | dose: 300.0 mg/kg/injection, schedule: Q01DX001 (ip), vehicle: other 91 % of control | dose: 300.0 mg/kg/injection, schedule: Q01DX001 (ip), vehicle: saline 112 % of control

CC(C)(C)C(O)(C(=O)O)C(C)(C)C
inactive: dose: 50.0 mg/kg/injection, schedule: Q01DX001 (ip), vehicle: saline 110 % of control | [3] 98 % of control | [4] 104 % of control | [7] 100 % of control

COC(=O)C1=CC2C3C=C(C(=O)OC)C(C3)C2C1 (stereo not given)
inactive: dose: 75.0 mg/kg/injection, schedule: Q01DX001 (ip), vehicle: Klucel (hydroxypropylcellulose) (HPC) 100 % of control | dose: 150.0 mg/kg/injection, schedule: Q01DX001 (ip), vehicle: Klucel (hydroxypropylcellulose) (HPC) 103 % of control | dose: 300.0 mg/kg/injection, schedule: Q01DX001 (ip), vehicle: Klucel (hydroxypropylcellulose) (HPC) 98 % of control

CCCCCCNC(=O)c1ccc(C(=O)NCCCCCC)cc1
inactive: [8] 94 % of control and 101 % of control | [9] 102 % of control | [10] 95 % of control and 90 % of control

CCN(CC)c1ccc(N=C2C=C(C(=O)Nc3ccc(S(C)(=O)=O)cc3)C(=O)c3ccccc32)c(C)c1
inactive: [3] 92 % of control | [4] 96 % of control | [7] 96 % of control

C=CCN(CC=C)CCNc1nc(C(Cl)(Cl)Cl)nc2ccc(Cl)cc12
inactive: dose: 100.0 mg/kg/injection, schedule: Q04DX003 (ip), vehicle: saline with Tween-80 102 % of control | dose: 200.0 mg/kg/injection, schedule: Q04DX003 (ip), vehicle: saline with Tween-80 87 % of control

O=S1(=O)CC(CBr)=C(CBr)C1
inactive: dose: 15.0 mg/kg/injection, schedule: Q01DX001 (ip), vehicle: carboxymethylcellulose (CMC) 94 % of control | dose: 30.0 mg/kg/injection, schedule: Q01DX001 (ip), vehicle: carboxymethylcellulose (CMC) 93 % of control | dose: 60.0 mg/kg/injection, schedule: Q01DX001 (ip), vehicle: carboxymethylcellulose (CMC) 100 % of control

CCCCCC(C)(C)O
inactive: [3] 96 % of control | [1] 97 % of control | dose: 187.0 mg/kg/injection, schedule: Q01DX001 (ip), vehicle: saline 103 % of control | [4] 98 % of control | [2] 101 % of control | dose: 267.0 mg/kg/injection, schedule: Q01DX001 (ip), vehicle: saline 97 % of control | dose: 600.0 mg/kg/injection, schedule: Q01DX001 (ip), vehicle: saline 92 % of control

OC1OC(CN(CCCl)c2ccccc2)C(O)C(O)C1O (stereo not given)
inactive: dose: 18.0 mg/kg/injection, schedule: Q01DX Z (ip), vehicle: methylcellulose (MC) 109 % of control | dose: 27.0 mg/kg/injection, schedule: Q01DX Z (ip), vehicle: methylcellulose (MC) 117 % of control | dose: 60.0 mg/kg/injection, schedule: Q01DX Z (ip), vehicle: methylcellulose (MC) 117 % of control

Nc1ccccc1O
inactive: dose: 12.5 mg/kg/injection, schedule: Q04DX003 (ip), vehicle: Klucel (hydroxypropylcellulose) (HPC) 100 % of control | dose: 25.0 mg/kg/injection, schedule: Q04DX003 (ip), vehicle: Klucel (hydroxypropylcellulose) (HPC) 100 % of control | dose: 50.0 mg/kg/injection, schedule: Q04DX003 (ip), vehicle: Klucel (hydroxypropylcellulose) (HPC) 92 % of control | [1] 110 % of control | [2] 105 % of control | [11] 108 % of control | dose: 600.0 mg/kg/injection, schedule: Q01DX009 (ip), vehicle: saline 92 % of control

Nc1[nH]c(=O)[nH]c(=O)c1N=Nc1ccc(S(=O)(=O)Nc2ncccn2)cc1
inactive: [3] 94 % of control | [4] 98 % of control | [7] 96 % of control

CC1(C)CN=C(c2cccc([N+](=O)[O-])c2)O1
inactive: [8] 98 % of control | [9] 105 % of control | [10] 100 % of control

CN(C(=O)N(CCCl)N=O)C1CCCCC1
inactive: [5] 109 % of control | [6] 93 % of control

COc1ccc(CN(CCO)C(C)=O)cc1
inactive: [1] 100 % of control | dose: 100.0 mg/kg/injection, schedule: Q04DX003 (ip), vehicle: saline 112 % of control | [2] 105 % of control | dose: 200.0 mg/kg/injection, schedule: Q04DX003 (ip), vehicle: saline 107 % of control | [11] 103 % of control | dose: 400.0 mg/kg/injection, schedule: Q04DX003 (ip), vehicle: saline 119 % of control

O=P(O)(O)CO
inactive: dose: 100.0 mg/kg/injection, schedule: Q04DX002 (ip), vehicle: saline 97 % of control and 87 % of control | dose: 200.0 mg/kg/injection, schedule: Q04DX002 (ip), vehicle: saline 86 % of control
